In the supplement of paper PMC10307832:

Legend:
Assay in all cases: relative viability (nuclei count vs DMSO), 5 days (fraction); higher = more cells survive
[1] = compound: CN(C)C[C@@H]1CCn2cc(c3ccccc32)C2=C(C(=O)NC2=O)c2cn(c3ccccc23)CCO1 [Ruboxistaurin]
Method in brief: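 Cells of lung cancer lines were placed in 1536-well plates and kept overnight at 37 °C. Pinning then delivered five library-drug doses (not always all listed), spaced by √10, onto plates anchored with vehicle, and the cells were left 5 days without changing medium. One step fixed, permeabilised and stained them with Hoechst, and MetaXpress counted nuclei in 4× images. Viability, as a median over plates, is treated-well nuclei divided by vehicle-well nuclei, with acceptance only at control CV below 25% and at least one doubling.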

[2] = compound: CN(C)C[C@@H]1CCn2cc(c3ccccc32)C2=C(C(=O)NC2=O)c2cn(c3ccccc23)CCO1 [Ruboxistaurin] + O=C(c1cc(Cc2n[nH]c(=O)c3ccccc23)ccc1F)N1CCN(C(=O)C2CC2)CC1 [Olaparib] (partner 8 µM)
Method in brief: (§1)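 Each reported value is a median over duplicate plates. It expresses relative viability: treated-well nuclei count divided by vehicle-well nuclei count. Lung cancer cell lines in 1536-well plates were dosed by pin tool a day after seeding, alone with one drug or with a fixed anchor-drug dose plus five library-drug doses (not always all listed) in √10 steps, and nuclei were counted after 5 days.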

[3] = compound: CN(C)C[C@@H]1CCn2cc(c3ccccc32)C2=C(C(=O)NC2=O)c2cn(c3ccccc23)CCO1 [Ruboxistaurin] + C[C@@H](Oc1cc(-c2cnn(C3CCNCC3)c2)cnc1N)c1c(Cl)ccc(F)c1Cl [Crizotinib] (partner 1 µM)
Method in brief: as §1

[4] = compound: CN(C)C[C@@H]1CCn2cc(c3ccccc32)C2=C(C(=O)NC2=O)c2cn(c3ccccc23)CCO1 [Ruboxistaurin] + Cc1nc(NC(=O)N2CCC[C@H]2C(N)=O)sc1-c1ccnc(C(C)(C)C(F)(F)F)c1 [Alpelisib] (partner 2 µM)
Method in brief: as §1

[5] = compound: CN(C)C[C@@H]1CCn2cc(c3ccccc32)C2=C(C(=O)NC2=O)c2cn(c3ccccc23)CCO1 [Ruboxistaurin] + Cc1nc(Nc2ncc(C(=O)Nc3c(C)cccc3Cl)s2)cc(N2CCN(CCO)CC2)n1 [Dasatinib] (partner 0.075 µM)
Method in brief: as §1

Cell Line | relative viability ([1]; 0.08 µM) | relative viability ([1]; 0.8 µM) | relative viability ([1]; 2.53 µM) | relative viability ([1]; 8 µM) | relative viability ([2]; first compound 0.08 µM) | relative viability ([2]; first compound 0.8 µM) | relative viability ([2]; first compound 2.53 µM) | relative viability ([2]; first compound 8 µM) | relative viability ([3]; first compound 0.08 µM) | relative viability ([3]; first compound 0.8 µM) | relative viability ([3]; first compound 2.53 µM) | relative viability ([3]; first compound 8 µM) | relative viability ([4]; first compound 0.08 µM) | relative viability ([4]; first compound 0.8 µM) | relative viability ([4]; first compound 2.53 µM) | relative viability ([4]; first compound 8 µM) | relative viability ([5]; first compound 0.08 µM) | relative viability ([5]; first compound 0.8 µM) | relative viability ([5]; first compound 2.53 µM) | relative viability ([5]; first compound 8 µM)
NCI-H23 | 0.974 | 0.892 | 1.03 | 0.886 | 0.41 | 0.251 | 0.361 | 0.254 | 0.542 | 0.395 | 0.552 | 0.533 | 0.831 | 0.617 | 0.71 | 0.686 | 0.849 | 0.732 | 0.769 | 0.794
NCI-H322M | 1.02 | 0.863 | 0.895 | 0.551 | 0.764 | 0.675 | 0.805 | 0.329 | 0.96 | 0.863 | 0.949 | 1.11 | 0.811 | 0.74 | 0.818 | 0.67 | 0.265 | 0.267 | 0.257 | 0.228
NCI-H358 | 1.14 | 0.881 | 0.984 | 0.712 | 0.748 | 0.587 | 0.604 | 0.458 | 0.518 | 0.517 | 0.609 | 0.573 | 0.927 | 0.666 | 0.75 | 0.424 | 0.177 | 0.149 | 0.149 | 0.148
NCI-H441 | 1.14 | 0.936 | 1.19 | 0.947 | 0.498 | 0.532 | 0.643 | 0.643 | 0.787 | 0.708 | 0.771 | 0.636 | 0.653 | 0.717 | 0.845 | 0.498 | 0.538 | 0.525 | 0.494 | 0.577
NCI-H460 | 1.01 | 0.98 | 1.04 | 1.02 | 0.461 | 0.398 | 0.415 | 0.391 | 0.772 | 0.822 | 1.02 | 0.537 | 0.398 | 0.324 | 0.26 | 0.137 | 0.552 | 0.35 | 0.602 | 0.327
NCI-H520 | 1.05 | 0.901 | 1.02 | 0.779 | 0.321 | 0.341 | 0.328 | 0.291 | 0.838 | 0.698 | 0.758 | 0.693 | 0.976 | 0.789 | 1.01 | 0.822 | 0.195 | 0.157 | 0.176 | 0.129
NCI-H596 | 0.979 | 0.864 | 1.02 | 0.867 | 0.545 | 0.59 | 0.692 | 0.659 | 1.03 | 0.981 | 1.03 | 0.795 | 0.494 | 0.461 | 0.502 | 0.414 | 0.65 | 0.488 | 0.63 | 0.547
NCI-H647 | 1.1 | 0.898 | 1 | 0.978 | 0.575 | 0.563 | 0.912 | 0.562 | 1.03 | 0.849 | 1.15 | 0.995 | 1.2 | 0.995 | 1.06 | 0.899 | 0.185 | 0.127 | 0.149 | 0.154
NCI-H650 | 1.19 | 0.864 | 0.98 | 1.02 | 0.462 | 0.352 | 0.47 | 0.425 | 0.785 | 0.775 | 0.733 | 0.729 | 1.17 | 0.888 | 1.12 | 1.12 | 0.5 | 0.384 | 0.516 | 0.433
NCI-H661 | 1.03 | 0.962 | 1.05 | 1.04 | 0.844 | 0.717 | 0.795 | 0.81 | 0.991 | 0.924 | 1.08 | 1.08 | 0.982 | 0.696 | 0.902 | 0.567 | 0.982 | 0.776 | 1.01 | 1.04
NCI-H727 | 0.952 | 0.7 | 0.969 | 0.808 | 0.625 | 0.7 | 0.722 | 0.521 | 0.789 | 0.696 | 0.693 | 0.745 | 0.543 | 0.485 | 0.527 | 0.368 | 0.474 |  | 0.296 | 0.324
NCI-H838 | 1.03 | 0.839 | 0.964 | 0.923 | 0.867 | 0.751 | 0.838 | 0.641 | 0.899 | 0.729 | 1.03 | 0.817 | 1.13 | 0.903 | 0.966 | 0.852 | 0.327 | 0.209 | 0.286 | 0.326
NCI-H1355 | 1.05 | 0.882 | 0.971 | 0.944 | 0.763 | 0.712 | 0.734 | 0.742 | 1.08 | 1 | 1.04 | 1 | 0.868 | 0.68 | 0.827 | 0.667 | 0.774 | 0.614 | 0.638 | 0.464
